How the values were obtained:
[1] = test system: HepG2 (hepatocellular cancer) cells; experiment: MTT assay, HepG2 cells; format: cell-based, human; conditions: read-out: IC50 (mean ± SD), HepG2, MTT
Protocol: (§1) The cell proliferations of ligand precursors and organotin(IV) compounds were evaluated with the aid of MTT (3-(4,5-dimethylthiazol-2-yl)-2,5-12 diphenyltetrazolium bromide) and CV (crystal violet) assays toward prostate (PC-3), colon (HT-29), breast (MCF-7) and hepatic (HepG2) cancer cell lines, and normal mouse embryonic fibroblast cells (NIH 3T3). The cells were cultivated in T75 flasks containing 10 mL of complete medium and kept at 37 °C and 5% CO2 […]. The nutrient medium was RPMI-1640 (PAA Laboratories) supplemented with 10% foetal bovine serum, L-glutamine, and penicillin/streptomycin (Sigma). Afterward, 5.000 cells of PC-3 and MCF-7 and 1.500 cells of HT-29 and HepG2 were transferred into 96 well-plates and used for MTT and CV assays. For microscopy investigations as well as FACS measurements (except for ROS/RNS measurements), MCF-7 cells were seeded overnight in 6-well plates (150,000 cells/well) in […] of complete medium. […] In all assays, control cells were untreated MCF-7 cells incubated for the same time period as treated cells and treated with appropriate reagents in various assays. BD FACS Aria III was used for flow cytometry experiments and results were analysed using BD FACSDiva software (BD Biosciences, Heidelberg, Germany) and Cyflogic (V 1.2.1, CyFlo Ltd., Turku, Finland). A fluorescence microscope Invitrogen EVOS FL 2 Auto 2 Cell Imaging System was used for visualization of the cells as well as for detection of fluorescence in the cells.
(§2) Ligands HL1‒HL3, organotin(IV) compounds, and cisplatin were investigated in 9 different concentrations (100, 50, 10, 5, 1, 0.5, 0.1, 0.05, 0.01 μM). Using the complete medium, each stock solution of the test compounds (20 mM in DMSO) was diluted to obtain the working solution. The final concentration of DMSO never overstepped 0.5%, which is non-toxic to the cells. Three technical replicates were performed for each concentration. The treated cells were incubated for 48 h at 37 °C under 5% CO2 and the viability of the cells was determined using MTT and CV assays according to the literature procedure. The IC50 values, defined as 50% inhibitory concentration, were calculated with a four-parameter logistic function and presented in a mean. All experiments were performed in triplicate.

[2] = test system: PC-3 (human prostate cancer) cells; experiment: CV (crystal violet) assay, PC-3 cells; format: cell-based; conditions: read-out: IC50 (mean ± SD), PC-3, CV
Protocol: as §1, §2

[3] = test system: MCF-7 (breast cancer) cells; experiment: MTT assay, MCF-7 cells; format: cell-based, human; conditions: for IC50: read-out: IC50 (mean ± SD), MCF-7, MTT
Protocol: as §1, §2

[4] = test system: HT-29 (human colorectal adenocarcinoma) cells; experiment: MTT assay, HT-29 cells; format: cell-based; conditions: read-out: IC50 (mean ± SD), HT-29, MTT
Protocol: as §1, §2

[5] = test system: PC-3, HT-29, MCF-7 and HepG2 tumour cell lines; experiment: MTT and CV assays, panel of four tumour cell lines; format: cell-based, human; conditions: applied concentrations up to 100 µM, 48 h
Protocol: The in vitro anticancer activity of ligand precursors, HL1–HL3 and its organotin(IV) compounds was tested in a panel of four tumour cell lines: PC3 (prostate cancer cells), HT-29 (colon cancer cells), MCF-7 (breast cancer cells), and HepG2 (hepatic cancer cells), as well as on normal NIH3T3 cells (mouse embryonic fibroblast) using MTT and CV assays after 48 h of incubation.
The cell proliferations of ligand precursors and organotin(IV) compounds were evaluated with the aid of MTT (3-(4,5-dimethylthiazol-2-yl)-2,5-12 diphenyltetrazolium bromide) and CV (crystal violet) assays toward prostate (PC-3), colon (HT-29), breast (MCF-7) and hepatic (HepG2) cancer cell lines, and normal mouse embryonic fibroblast cells (NIH 3T3). The cells were cultivated in T75 flasks containing 10 mL of complete medium and kept at 37 °C and 5% CO2 […]. The nutrient medium was RPMI-1640 (PAA Laboratories) supplemented with 10% foetal bovine serum, L-glutamine, and penicillin/streptomycin (Sigma). Afterward, 5.000 cells of PC-3 and MCF-7 and 1.500 cells of HT-29 and HepG2 were transferred into 96 well-plates and used for MTT and CV assays. For microscopy investigations as well as FACS measurements (except for ROS/RNS measurements), MCF-7 cells were seeded overnight in 6-well plates (150,000 cells/well) in […] of complete medium. […] BD FACS Aria III was used for flow cytometry experiments and results were analysed using BD FACSDiva software (BD Biosciences, Heidelberg, Germany) and Cyflogic (V 1.2.1, CyFlo Ltd., Turku, Finland). A fluorescence microscope Invitrogen EVOS FL 2 Auto 2 Cell Imaging System was used for visualization of the cells as well as for detection of fluorescence in the cells.
Ligands HL1‒HL3, organotin(IV) compounds, and cisplatin were investigated in 9 different concentrations (100, 50, 10, 5, 1, 0.5, 0.1, 0.05, 0.01 μM). […] The treated cells were incubated for 48 h at 37 °C under 5% CO2 and the viability of the cells was determined using MTT and CV assays according to the literature procedure. […]

[6] = test system: HepG2 (hepatocellular cancer) cells; experiment: CV (crystal violet) assay, HepG2 cells; format: cell-based, human; conditions: read-out: IC50 (mean ± SD), HepG2, CV
Protocol: as §1, §2

[7] = test system: PC-3 (human prostate cancer) cells; experiment: MTT assay, PC-3 cells; format: cell-based; conditions: read-out: IC50 (mean ± SD), PC-3, MTT
Protocol: as §1, §2

[8] = test system: NIH3T3 (normal mouse embryonic fibroblast) cells; experiment: CV (crystal violet) assay, NIH3T3 cells; format: cell-based; conditions: read-out: IC50 (mean ± SD), NIH3T3, CV
Protocol: as §1, §2

[9] = test system: HT-29 (human colorectal adenocarcinoma) cells; experiment: CV (crystal violet) assay, HT-29 cells; format: cell-based; conditions: read-out: IC50 (mean ± SD), HT-29, CV
Protocol: as §1, §2

[10] = test system: NIH3T3 (normal mouse embryonic fibroblast) cells; experiment: MTT assay, NIH3T3 cells; format: cell-based; conditions: read-out: IC50 (mean ± SD), NIH3T3, MTT
Protocol: as §1, §2

[11] = test system: MCF-7 (breast cancer) cells; experiment: CV (crystal violet) assay, MCF-7 cells; format: cell-based, human; conditions: read-out: IC50 (mean ± SD), MCF-7, CV
Protocol: as §1, §2

[12] = Homo sapiens, HepG2, MTT assay, 48 h incubation
[13] = Homo sapiens, PC-3, CV assay, 48 h incubation
[14] = Homo sapiens, MCF7, MTT assay, 48 h incubation
[15] = Homo sapiens, HT-29, MTT assay, 48 h incubation
[16] = Homo sapiens, HepG2, CV assay, 48 h incubation
[17] = Homo sapiens, PC-3, MTT assay, 48 h incubation
[18] = Mus musculus, NIH3T3, CV assay, 48 h incubation, normal cells
[19] = Homo sapiens, HT-29, CV assay, 48 h incubation
[20] = Mus musculus, NIH3T3, MTT assay, 48 h incubation, normal cells
[21] = Homo sapiens, MCF7, CV assay, 48 h incubation
[22] = CV assay, 48 h incubation, normal cells
[23] = MTT assay, 48 h incubation, normal cells

| Compound | IC50 [1, 12] [nM] | IC50 [2, 13] [nM] | IC50 [3, 14] [nM] | IC50 [4, 15] [nM] | influence on cell proliferation [5] | IC50 [6, 16] [nM] | IC50 [7, 17] [nM] | IC50 [8, 18] [nM] | IC50 [9, 19] [nM] | IC50 [10, 20] [nM] | IC50 [11, 21] [nM] | IC50 ([1]; MTT assay, 48 h incubation) [nM] | IC50 ([2]; CV assay, 48 h incubation) [nM] | IC50 ([3]; MTT assay, 48 h incubation) [nM] | IC50 ([4]; MTT assay, 48 h incubation) [nM] | IC50 ([6]; CV assay, 48 h incubation) [nM] | IC50 ([7]; MTT assay, 48 h incubation) [nM] | IC50 [8, 22] [nM] | IC50 ([9]; CV assay, 48 h incubation) [nM] | IC50 [10, 23] [nM] | other results |
| --- | --- | --- | --- | --- | --- | --- | --- | --- | --- | --- | --- | --- | --- | --- | --- | --- | --- | --- | --- | --- | --- |
| COc1ccc(-c2nc(CCC(=O)O)oc2-c2ccc(OC)cc2)cc1 [HL2, 3-(4,5-bis(4-Methoxylphenyl)oxazol-2-yl)propanoic acid] | > 100000 | > 100000 | > 100000 | > 100000 | did not affect cell proliferation in any cancer cell line tested | > 100000 | > 100000 | > 100000 | > 100000 | > 100000 | > 100000 | – | – | – | – | – | – | – | – | – | – |
| (3-(4,5-bis(4-Methoxylphenyl)oxazol-2-yl)propanoato)triphenyltin(IV) [Ph3SnL2] | – | – | – | – | – | – | – | – | – | – | – | 223 ± 84 | 785 ± 18 | 309 ± 59 | 453 ± 63 | 628 ± 165 | 575 ± 43 | 2610 ± 520 | 727 ± 18 | 1990 ± 1120 | IC50 ([11]; CV assay, 48 h incubation): 543 ± 26 nM |
| O=C(O)CCN1C(=O)NC(c2ccccc2)(c2ccccc2)C1=O [HL3, 3-(2,5-Dioxo-4,4-diphenylimidazolidin-1-yl)propanoic acid] | > 100000 | > 100000 | > 100000 | > 100000 | did not affect cell proliferation in any cancer cell line tested | > 100000 | > 100000 | > 100000 | > 100000 | > 100000 | > 100000 | – | – | – | – | – | – | – | – | – | – |
| O=C(CCN1C(=O)NC(c2ccccc2)(c2ccccc2)C1=O)[O][Sn]([c]1ccccc1)([c]1ccccc1)[c]1ccccc1 [Ph3SnL3, (3-(2,5-Dioxo-4,4-diphenylimidazolidin-1-yl)propanoato)triphenyltin(IV)] | – | – | – | – | – | – | – | – | – | – | – | 100 ± 30 | 458 ± 29 | 131 ± 17 | 218 ± 15 | 255 ± 85 | 211 ± 42 | 2090 ± 1030 | 471 ± 48 | 1820 ± 990 | fold higher activity compared to cisplatin against MCF-7 ([3]; Table 1 IC50 values, 48 h): up to 120 fold; IC50 ([11]; CV assay, 48 h incubation): 219 ± 16 nM |
| O=C(O)CCc1nc(-c2ccccc2)c(-c2ccccc2)o1 [HL1, 3-(4,5-diphenyloxazol-2-yl)propanoic acid, reference compound] | – | – | – | – | did not affect cell proliferation in any cancer cell line tested | – | – | – | – | – | – | – | – | – | – | – | – | – | – | – | IC50 ([1]; Homo sapiens, HepG2, 48 h): > 100000 nM; IC50 ([2]; Homo sapiens, PC-3, 48 h): > 100000 nM; IC50 ([3]; Homo sapiens, MCF7, 48 h): > 100000 nM; IC50 ([4]; Homo sapiens, HT-29, 48 h): > 100000 nM; IC50 ([6]; Homo sapiens, HepG2, 48 h): > 100000 nM; IC50 ([7]; Homo sapiens, PC-3, 48 h): > 100000 nM; IC50 ([8]; Mus musculus, NIH3T3, 48 h): > 100000 nM; IC50 ([9]; Homo sapiens, HT-29, 48 h): > 100000 nM; IC50 ([10]; Mus musculus, NIH3T3, 48 h): > 100000 nM; IC50 ([11]; Homo sapiens, MCF7, 48 h): > 100000 nM |

Source: publication PMC8198038, “In Vitro Evaluation of Antiproliferative Properties of Novel Organotin(IV) Carboxylate Compounds with Propanoic Acid Derivatives on a Panel of Human Cancer Cell Lines” (Molecules, 2021)
